Experiments:
Assay in all cases: relative viability (nuclei count vs DMSO), 5 days (fraction); higher = more cells survive
Ibrutinib + Palbociclib = compound: C=CC(=O)N1CCC[C@@H](n2nc(-c3ccc(Oc4ccccc4)cc3)c3c(N)ncnc32)C1 [Ibrutinib] + CC(=O)c1c(C)c2cnc(Nc3ccc(N4CCNCC4)cn3)nc2n(C2CCCC2)c1=O [Palbociclib] (partner 0.5 µM)
Procedure, shortened: (§1)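 Lung cancer cell lines in 1536-well plates were dosed by pin tool the day after seeding, either with one drug alone or with a fixed anchor-drug dose plus five library-drug doses (not always all listed) in √10 steps. After 5 days, cells were fixed and their nuclei stained in one step (final 0.05% Triton X-100, 1% formaldehyde, 1 ug/ml Hoechst), then counted on 4× images. Relative viability is the nuclei count in treated wells divided by that in vehicle wells. Values are medians of duplicate plates.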

Ibrutinib + Lapatinib = compound: C=CC(=O)N1CCC[C@@H](n2nc(-c3ccc(Oc4ccccc4)cc3)c3c(N)ncnc32)C1 [Ibrutinib] + CS(=O)(=O)CCNCc1ccc(-c2ccc3ncnc(Nc4ccc(OCc5cccc(F)c5)c(Cl)c4)c3c2)o1 [Lapatinib] (partner 2 µM)
Procedure, shortened: as §1

PAC-1 + Luminespib = compound: C=CCc1cccc(/C=N/NC(=O)CN2CCN(Cc3ccccc3)CC2)c1O [PAC-1] + CCNC(=O)c1noc(-c2cc(C(C)C)c(O)cc2O)c1-c1ccc(CN2CCOCC2)cc1 [Luminespib] (partner 0.01 µM)
Procedure, shortened: as §1

PAC-1 + Pictilisib = compound: C=CCc1cccc(/C=N/NC(=O)CN2CCN(Cc3ccccc3)CC2)c1O [PAC-1] + CS(=O)(=O)N1CCN(Cc2cc3nc(-c4cccc5[nH]ncc45)nc(N4CCOCC4)c3s2)CC1 [Pictilisib] (partner 1 µM)
Procedure, shortened: as §1

Row | Cell Line | relative viability (Ibrutinib + Palbociclib; first compound 0.005 µM) | relative viability (Ibrutinib + Palbociclib; first compound 0.01581 µM) | relative viability (Ibrutinib + Palbociclib; first compound 0.05 µM) | relative viability (Ibrutinib + Palbociclib; first compound 0.1581 µM) | relative viability (Ibrutinib + Palbociclib; first compound 0.5 µM) | relative viability (Ibrutinib + Lapatinib; first compound 0.005 µM) | relative viability (Ibrutinib + Lapatinib; first compound 0.01581 µM) | relative viability (Ibrutinib + Lapatinib; first compound 0.05 µM) | relative viability (Ibrutinib + Lapatinib; first compound 0.1581 µM) | relative viability (Ibrutinib + Lapatinib; first compound 0.5 µM) | relative viability (PAC-1 + Luminespib; first compound 0.02 µM) | relative viability (PAC-1 + Luminespib; first compound 0.06325 µM) | relative viability (PAC-1 + Luminespib; first compound 0.2 µM) | relative viability (PAC-1 + Luminespib; first compound 2 µM) | relative viability (PAC-1 + Pictilisib; first compound 0.02 µM) | relative viability (PAC-1 + Pictilisib; first compound 0.06325 µM) | relative viability (PAC-1 + Pictilisib; first compound 0.2 µM) | relative viability (PAC-1 + Pictilisib; first compound 2 µM)
1 | HCC-827 | 0.471 | 0.438 | 0.453 | 0.475 | 0.17 | 0.169 | 0.206 | 0.208 | 0.174 | 0.173 | 0.634 | 0.465 | 0.649 | 0.609 | 1.12 | 1.01 | 0.99 | 0.983
2 | HOP-62 | 0.542 | 0.442 | 0.42 | 0.459 | 0.516 | 1.04 | 0.922 | 1.08 | 1.13 | 1.12 | 0.954 | 0.835 | 0.852 | 0.942 | 0.653 | 0.573 | 0.689 | 0.726
3 | IA-LM |  |  |  |  |  | 0.792 | 0.827 | 0.592 | 1.1 | 0.814 |  |  |  |  | 0.339 | 0.363 | 0.355 | 0.456
4 | LC-2-ad | 0.588 | 0.513 | 0.505 | 0.542 | 0.505 | 0.938 | 0.577 | 0.972 | 0.911 | 0.968 | 1.06 | 1.02 | 0.971 | 0.963 | 0.523 | 0.588 | 0.511 | 0.56
5 | LCLC-97TM1 | 0.222 | 0.226 | 0.284 | 0.241 | 0.161 | 0.69 | 0.913 | 1.41 |  | 0.931 | 0.74 | 0.916 | 0.621 | 0.868 |  | 0.206 | 0.178 | 0.231
6 | LCLC-103H | 0.498 | 0.506 | 0.528 | 0.481 | 0.469 |  |  |  |  |  | 1.06 | 0.932 | 0.981 | 0.911 | 0.549 | 0.612 | 0.592 | 0.638
7 | LK-2 | 0.469 | 0.662 | 0.586 | 0.542 | 0.579 | 0.602 | 0.93 | 0.956 | 0.877 | 0.769 | 0.176 | 0.169 | 0.225 | 0.254 | 0.612 | 0.607 | 0.642 | 0.502
8 | LOU-NH91 | 0.563 | 0.499 | 0.567 | 0.56 | 0.513 | 0.638 | 0.786 | 0.774 | 0.737 | 0.694 | 0.312 | 0.271 | 0.352 | 0.322 | 0.494 | 0.521 | 0.545 | 0.514
9 | LU99A | 0.339 | 0.391 | 0.41 | 0.443 | 0.391 | 0.936 | 1.08 | 1.1 | 1.04 | 0.995 | 0.304 | 0.229 | 0.266 | 0.217 | 0.32 | 0.271 | 0.313 | 0.322
10 | LXF-289 | 0.607 | 0.598 | 0.582 | 0.556 | 0.606 | 0.918 | 0.903 | 0.932 | 0.88 | 0.923 | 0.683 | 0.731 | 0.758 | 0.756 | 0.846 | 0.727 | 0.739 | 0.792
11 | NCI-H23 | 0.484 | 0.465 | 0.456 | 0.53 | 0.506 | 0.943 | 1.19 | 1.18 | 1.15 |  | 0.231 | 0.223 | 0.237 | 0.219 | 0.365 | 0.461 | 0.414 | 0.473
12 | NCI-H322M | 0.472 | 0.463 | 0.479 | 0.469 | 0.399 | 0.527 | 0.652 | 0.621 | 0.512 | 0.585 | 0.812 | 0.832 | 0.848 | 0.775 | 0.4 | 0.513 | 0.499 | 0.332
13 | NCI-H358 | 0.121 | 0.169 |  | 0.189 | 0.11 | 0.403 | 0.466 | 0.475 | 0.406 | 0.43 | 0.411 | 0.404 | 0.32 | 0.265 | 0.355 | 0.396 | 0.376 | 0.367
14 | NCI-H441 | 0.2 | 0.199 | 0.216 | 0.138 | 0.157 |  |  |  |  |  | 0.285 | 0.254 | 0.471 | 0.335 | 0.447 | 0.583 | 0.552 | 0.377
15 | NCI-H460 | 0.167 | 0.19 | 0.197 | 0.149 | 0.202 | 1.18 | 0.892 | 0.96 | 0.94 | 1.11 | 0.035 | 0.0314 | 0.0281 | 0.0281 | 0.281 | 0.405 | 0.355 | 0.39
16 | NCI-H522 | 0.865 | 1.05 | 0.861 | 1.01 | 0.664 |  |  |  |  |  | 1.15 | 1.06 | 0.975 | 1.17 |  |  |  | 
17 | NCI-H596 |  |  |  |  |  | 1.86 | 1.1 | 1.02 | 0.988 | 1.08 | 0.913 | 0.975 | 0.929 | 1.08 | 0.424 | 0.423 | 0.341 | 0.422
18 | NCI-H1299 |  |  |  |  |  | 0.973 | 0.984 | 0.977 | 0.979 | 0.969 |  |  |  |  | 0.876 | 0.763 | 0.815 | 0.657
19 | NCI-H1563 |  |  |  |  |  | 0.867 | 0.866 | 0.959 | 0.945 | 1.02 | 0.49 | 0.542 | 0.505 | 0.511 | 0.641 | 0.695 | 0.752 | 0.63
20 | NCI-H1623 |  |  |  |  |  |  |  |  |  |  | 0.465 | 0.473 | 0.515 | 0.499 |  |  |  | 
21 | NCI-H1648 | 0.279 | 0.27 | 0.259 | 0.297 | 0.252 |  |  |  |  |  |  |  |  |  |  |  |  | 
22 | NCI-H1703 |  |  |  |  |  |  |  | 1.06 | 1.16 | 0.684 |  |  |  |  | 0.245 | 0.267 | 0.249 | 0.205
23 | NCI-H2342 | 0.495 | 0.519 | 0.496 | 0.486 | 0.502 |  |  |  |  |  | 0.655 | 0.82 | 0.759 | 0.777 |  |  |  | 
24 | SW 900 | 0.572 | 0.437 | 0.552 | 0.511 | 0.479 |  |  |  |  |  | 0.173 | 0.157 | 0.16 | 0.214 |  |  |  | 
